According to ChEMBL document CHEMBL4414597, “Polyketides from Marine-Derived Aspergillus porosus: Challenges and Opportunities for Determining Absolute Configuration” (J Nat Prod, 2019):
Calls of active or inactive are those of the source. The calls are words filed in the database; no cut-off is given here.

Columns and labels:
Staphylococcus aureus [1] = assay: Antibacterial activity against Staphylococcus aureus ATCC 25923 by microbroth dilution method; assay type: functional, organism-based
HCT-116 [2] = assay: Cytotoxicity against human HCT116 cells assessed as reduction in cell viability by MTT assay; assay type: functional, cell-based
Pseudomonas aeruginosa [3] = assay: Antibacterial activity against Pseudomonas aeruginosa ATCC 15442 by microbroth dilution method; assay type: functional, organism-based
[4] = Stability of compound in methanol; assay type: physicochemical
Staphylococcus aureus [5] = assay: Antibacterial activity against methicillin-resistant Staphylococcus aureus ATCC BAA-41 by microbroth dilution method; assay type: functional, organism-based
[6] = Metal chelating activity of the compound assessed as Fe2+-compound complex formation by measuring absorbance at > 50 uM in presence of ferrozine by spectrophotometric method
Staphylococcus aureus [7] = assay: Antibacterial activity against multi-resistant Staphylococcus aureus ATCC BAA-44 by microbroth dilution method; assay type: functional, organism-based
[8] = Antioxidant activity assessed as DPPH radical scavenging activity at > 50 uM and measure every 10 mins for 30 mins subsequently measured every 30 mins for 4 hrs by spectrophotometric method; assay type: functional
Staphylococcus aureus [9] = assay: Antibacterial activity against methicillin-resistant Staphylococcus aureus ATCC BAA-41 assessed as growth inhibition at 0.125 mg/m by microbroth dilution method relative to control; assay type: functional
HCT-116 [10] = assay: Cytotoxicity against human HCT116 cells assessed as assessed as growth inhibition at 200 uM by MTT assay relative to control; assay type: functional; conditions: read-out: GI
Staphylococcus aureus [11] = assay: Antibacterial activity against Staphylococcus aureus ATCC 25923 assessed as growth inhibition at 0.125 mg/m by microbroth dilution method relative to control; assay type: functional
Pseudomonas aeruginosa [12] = assay: Antibacterial activity against Pseudomonas aeruginosa ATCC 15442 assessed as growth inhibition at 0.125 mg/ml by microbroth dilution method relative to control; assay type: functional; conditions: read-out: GI

| SMILES | Activity (Staphylococcus aureus [1]) | Activity [6] | Activity (HCT-116 [2]) | Activity (Pseudomonas aeruginosa [3]) | Activity (Staphylococcus aureus [7]) | Activity [8] | Activity (Staphylococcus aureus [5]) | further results |
| --- | --- | --- | --- | --- | --- | --- | --- | --- |
| C=C[C@]1(C)C=C2C(=O)[C@]3(O)OC(=O)[C@@]4(CCCC(C)(C)[C@@H]43)[C@H]2CC1 | – | – | – | – | – | – | – | IC50 (Staphylococcus aureus [1]): 71.6 µM; IC50 (HCT-116 [2]): 32.7 µM; IC50 (Pseudomonas aeruginosa [3]): > 100 µM; Stability [4]: Unstable; IC50 (Staphylococcus aureus [5]): 77.8 µM |
| C=C[C@]1(C)C=C2C(=O)[C@@]3(O)OC(=O)[C@@]4(CCCC(C)(C)[C@H]34)[C@@]2(O)CC1 [SPHAEROPSIDIN A] | – | – | – | – | – | – | – | IC50 (Staphylococcus aureus [1]): 32.6 µM; IC50 (HCT-116 [2]): 4.9 µM; IC50 (Pseudomonas aeruginosa [3]): > 100 µM; Stability [4]: Stable; IC50 (Staphylococcus aureus [5]): 35.3 µM |
| COc1cc(O)cc(CC(C)=O)c1C[C@@H](C)C(=O)[C@H](C)C(=O)/C(C)=C/C(C)=C/[C@H](C)[C@H](C)O | inactive | inactive | inactive | inactive | inactive | inactive | inactive | – |
| CN[C@H](CC(C)C)C(=O)N[C@H]1C(=O)N[C@@H](CC(N)=O)C(=O)N[C@H]2C(=O)N[C@H]3C(=O)N[C@H](C(=O)N[C@H](C(=O)O)c4cc(O)cc(O)c4-c4cc3ccc4O)[C@H](O)c3ccc(c(Cl)c3)Oc3cc2cc(c3O[C@@H]2O[C@H](CO)[C@@H](O)[C@H](O)[C@H]2O[C@H]2C[C@](C)(N)[C@H](O)[C@H](C)O2)Oc2ccc(cc2Cl)[C@H]1O [VANCOMYCIN] | – | – | – | – | – | – | – | growth inhibition (GI) (Staphylococcus aureus [9]): 100% |
| COc1cc([C@@H]2c3cc4c(cc3[C@@H](O[C@@H]3O[C@@H]5CO[C@@H](C)O[C@H]5[C@H](O)[C@H]3O)[C@H]3COC(=O)[C@H]23)OCO4)cc(OC)c1O [ETOPOSIDE] | – | – | – | – | – | – | – | inhibition of growth at 200 µM (HCT-116 [10]): 82.8% |
| COc1cc(O)cc(CC(C)=O)c1C[C@@H](C)C(=O)[C@@H](C)C(=O)/C(C)=C/C(C)=C/[C@H](C)[C@H](C)O | inactive | inactive | inactive | inactive | inactive | inactive | inactive | – |
| NC[C@H]1O[C@H](O[C@H]2[C@H](O)[C@@H](O[C@H]3O[C@H](CO)[C@@H](O)[C@H](N)[C@H]3O)[C@H](N)C[C@@H]2N)[C@H](O)[C@@H](O)[C@@H]1O [KANAMYCIN] | – | – | – | – | – | – | – | growth inhibition (GI) (Staphylococcus aureus [11]): 100%; inhibition of growth at 125 µg/mL (Pseudomonas aeruginosa [12]): 100% |
| CC(=O)Cc1cc(O)cc(O)c1CC(C)C(=O)C(C)C(=O)/C(C)=C/C(C)=C/C(C)C(C)O (configuration not stated) | inactive | inactive | inactive | inactive | inactive | inactive | inactive | – |
| CC(=O)Cc1cc(O)cc2c1CC(C)C(O)(C(C)C(=O)/C(C)=C/C(C)=C/C(C)C(C)O)O2 (configuration not stated) | inactive | inactive | inactive | inactive | inactive | inactive | inactive | – |
